Measured values published in US7880007B2, “Bicyclic substituted phenyl piperidine modulators of muscarinic receptors” (Vertex Pharmaceuticals Incorporated, priority 2004, dated 2011).

Experiments:
Assay type in all cases: cell-based
M2 muscarinic receptor = biological target: T1, M2 muscarinic receptor (Homo sapiens, UniProt P08172); test: Functional mobilization of intracellular calcium (FLIPR), M2-CHO cells; details: for Emax: 100% efficacy = maximum response obtained with the Carbachol control; for M2 Activity: M2-CHO cells, calcium mobilization (FLIPR)
T1 construct: expressed in transfected cells; host or cells: CHO (M2-CHO)
T1 sequence (P08172 1-466): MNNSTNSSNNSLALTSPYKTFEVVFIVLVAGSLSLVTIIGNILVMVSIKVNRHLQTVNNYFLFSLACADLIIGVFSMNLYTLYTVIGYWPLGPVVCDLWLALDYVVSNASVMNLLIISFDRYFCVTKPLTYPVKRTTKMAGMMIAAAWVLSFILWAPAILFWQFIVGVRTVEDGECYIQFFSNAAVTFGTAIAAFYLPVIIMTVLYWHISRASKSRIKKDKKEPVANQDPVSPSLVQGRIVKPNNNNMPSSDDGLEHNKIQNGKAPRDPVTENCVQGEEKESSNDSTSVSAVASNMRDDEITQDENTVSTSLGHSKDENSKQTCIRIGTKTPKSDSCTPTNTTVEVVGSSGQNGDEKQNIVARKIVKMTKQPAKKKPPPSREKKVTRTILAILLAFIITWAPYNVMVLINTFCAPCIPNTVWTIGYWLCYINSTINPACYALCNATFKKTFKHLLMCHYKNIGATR
How it was run: (§1)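 CHO cells expressing human M1–M4 receptors loaded with Fluo-3 AM or Calcium 3 dye (1 mM probenecid, pH 7.4); 0.5% DMSO final. Agonist mode: compound added directly; antagonist mode: 15 min pre-incubation or co-application, then carbachol at EC80. Fluorescence read 60 s on FLIPR; efficacy relative to carbachol maximum.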

M4 muscarinic receptor = biological target: T2, M4 muscarinic receptor (Homo sapiens, UniProt P08173); test: Functional mobilization of intracellular calcium (FLIPR), M4-CHO cells; details: for Emax: 100% efficacy = maximum response obtained with the Carbachol control; for M4 Activity: M4-CHO cells, calcium mobilization (FLIPR)
T2 construct: expressed in transfected cells; host or cells: CHO (M4-CHO)
T2 sequence (P08173 1-479): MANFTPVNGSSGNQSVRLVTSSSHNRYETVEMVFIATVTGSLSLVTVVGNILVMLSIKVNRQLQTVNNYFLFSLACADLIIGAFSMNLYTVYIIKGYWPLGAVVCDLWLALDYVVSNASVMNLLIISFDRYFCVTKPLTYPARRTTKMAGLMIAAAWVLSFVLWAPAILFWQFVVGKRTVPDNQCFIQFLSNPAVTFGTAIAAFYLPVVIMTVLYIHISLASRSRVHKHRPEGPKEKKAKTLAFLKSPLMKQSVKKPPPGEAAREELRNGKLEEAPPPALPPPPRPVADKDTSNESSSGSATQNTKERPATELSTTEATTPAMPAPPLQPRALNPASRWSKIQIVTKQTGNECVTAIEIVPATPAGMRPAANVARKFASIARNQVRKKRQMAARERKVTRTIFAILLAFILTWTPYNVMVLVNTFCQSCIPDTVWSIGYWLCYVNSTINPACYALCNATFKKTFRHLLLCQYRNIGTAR
How it was run: as §1

M3 muscarinic receptor = biological target: T3, M3 muscarinic receptor (Homo sapiens, UniProt P20309); test: Functional mobilization of intracellular calcium (FLIPR), M3-CHO cells; details: for Emax: 100% efficacy = maximum response obtained with the Carbachol control; for M3 Activity: M3-CHO cells, calcium mobilization (FLIPR)
T3 construct: expressed in transfected cells; host or cells: CHO (M3-CHO)
T3 sequence (P20309 whole entry): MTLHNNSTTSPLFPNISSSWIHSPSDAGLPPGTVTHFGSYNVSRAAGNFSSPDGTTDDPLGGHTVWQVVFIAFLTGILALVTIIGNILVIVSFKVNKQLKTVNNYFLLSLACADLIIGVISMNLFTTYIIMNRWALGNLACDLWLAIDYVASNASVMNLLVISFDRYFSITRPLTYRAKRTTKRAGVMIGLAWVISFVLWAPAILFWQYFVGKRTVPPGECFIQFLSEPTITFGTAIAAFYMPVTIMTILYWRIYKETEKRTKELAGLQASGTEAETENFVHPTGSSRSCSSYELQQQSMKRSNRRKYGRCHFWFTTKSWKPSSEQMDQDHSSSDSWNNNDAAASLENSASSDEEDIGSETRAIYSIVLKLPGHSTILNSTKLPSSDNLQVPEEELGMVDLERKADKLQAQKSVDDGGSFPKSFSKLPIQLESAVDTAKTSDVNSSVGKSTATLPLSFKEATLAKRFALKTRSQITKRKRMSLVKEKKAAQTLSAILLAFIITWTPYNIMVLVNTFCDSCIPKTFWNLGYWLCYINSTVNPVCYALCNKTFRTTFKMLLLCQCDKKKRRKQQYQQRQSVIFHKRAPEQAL
How it was run: as §1

M1 muscarinic receptor = biological target: T4, M1 muscarinic receptor (Homo sapiens, UniProt P11229); test: Functional mobilization of intracellular calcium (FLIPR), M1-CHO cells; details: for Emax: 100% efficacy = maximum response obtained with the Carbachol control; for M1 Activity: M1-CHO cells, calcium mobilization (FLIPR)
T4 construct: expressed in transfected cells; host or cells: CHO (M1-CHO)
T4 sequence (P11229 1-460): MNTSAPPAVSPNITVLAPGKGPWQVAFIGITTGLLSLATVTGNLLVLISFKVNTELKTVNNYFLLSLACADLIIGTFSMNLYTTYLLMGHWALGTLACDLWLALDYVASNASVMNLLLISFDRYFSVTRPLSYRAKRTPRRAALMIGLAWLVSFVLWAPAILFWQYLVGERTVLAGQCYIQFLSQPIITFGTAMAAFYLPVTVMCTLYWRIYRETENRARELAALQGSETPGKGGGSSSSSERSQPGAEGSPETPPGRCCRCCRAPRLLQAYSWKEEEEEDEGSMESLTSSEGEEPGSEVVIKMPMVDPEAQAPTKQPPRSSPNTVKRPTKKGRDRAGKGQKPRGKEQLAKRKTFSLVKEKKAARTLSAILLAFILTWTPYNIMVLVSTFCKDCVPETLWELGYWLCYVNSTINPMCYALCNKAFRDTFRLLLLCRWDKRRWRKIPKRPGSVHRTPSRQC
How it was run: as §1

Row | Structure (SMILES) | Emax (M2 muscarinic receptor) [%] | Emax (M4 muscarinic receptor) [%] | Emax (M3 muscarinic receptor) [%] | Emax (M1 muscarinic receptor) [%] | M2 Activity (M2 muscarinic receptor) | M4 Activity (M4 muscarinic receptor) | M3 Activity (M3 muscarinic receptor) | M1 Activity (M1 muscarinic receptor)
1 | c1ccc(COc2ccccc2C2CCN([C@H]3C[C@H]4CC[C@H]3C4)CC2)cc1 [Compound 114] | < 25 | 25 to 100 | < 25 | < 25 | + (activity was measured to be greater than 5.0 μM) | ++ (activity was measured to be from 1.0 μM to 5.0 μM) | + (activity was measured to be greater than 5.0 μM) | + (activity was measured to be greater than 5.0 μM)
2 | COc1cccc(-c2ccccc2C2CCN([C@H]3C[C@H]4CC[C@H]3C4)CC2)c1 [Compound 116] | < 25 | 25 to 100 | < 25 | 25 to 100 | + (activity was measured to be greater than 5.0 μM) | ++ (activity was measured to be from 1.0 μM to 5.0 μM) | + (activity was measured to be greater than 5.0 μM) | + (activity was measured to be greater than 5.0 μM)
3 | COc1ccccc1[C@H]1CCN([C@@H]2C[C@H]3CC[C@H]2C3)C[C@@H]1O [Compound 117] | < 25 | 25 to 100 | < 25 | < 25 | + (activity was measured to be greater than 5.0 μM) | + (activity was measured to be greater than 5.0 μM) | + (activity was measured to be greater than 5.0 μM) | + (activity was measured to be greater than 5.0 μM)
4 | CCOC(=O)N1C2CCC1CC(N1CCC(OC)(c3cc(F)ccc3OC)CC1)C2 (stereo not shown) [Compound 118] | < 25 | 25 to 100 | < 25 | 25 to 100 | + (activity was measured to be greater than 5.0 μM) | +++ (activity was measured to be less than 1.0 μM) | + (activity was measured to be greater than 5.0 μM) | +++ (activity was measured to be less than 1.0 μM)
5 | COc1cccc(C(=O)COc2ccccc2C2CCN([C@H]3C[C@H]4CC[C@H]3C4)CC2)c1 [Compound 119] | 25 to 100 | 25 to 100 | < 25 | 25 to 100 | + (activity was measured to be greater than 5.0 μM) | ++ (activity was measured to be from 1.0 μM to 5.0 μM) | + (activity was measured to be greater than 5.0 μM) | + (activity was measured to be greater than 5.0 μM)
6 | COc1ccc(-c2ccc(C(F)(F)F)cc2)cc1C1CCN([C@H]2C[C@H]3CC[C@H]2C3)CC1 [Compound 120] | < 25 | 25 to 100 | < 25 | 25 to 100 | + (activity was measured to be greater than 5.0 μM) | + (activity was measured to be greater than 5.0 μM) | + (activity was measured to be greater than 5.0 μM) | + (activity was measured to be greater than 5.0 μM)
7 | COc1ccc(Cl)cc1C1(OC)CCN(CC2CCOCC2)CC1 [Compound 123] | < 25 | < 25 | < 25 | 25 to 100 | + (activity was measured to be greater than 5.0 μM) | + (activity was measured to be greater than 5.0 μM) | + (activity was measured to be greater than 5.0 μM) | ++ (activity was measured to be from 1.0 μM to 5.0 μM)
8 | COc1ccc(-c2ccc(OC(F)(F)F)cc2)cc1C1CCN([C@H]2C[C@H]3CC[C@H]2C3)CC1 [Compound 126] | < 25 | 25 to 100 | < 25 | 25 to 100 | + (activity was measured to be greater than 5.0 μM) | + (activity was measured to be greater than 5.0 μM) | + (activity was measured to be greater than 5.0 μM) | + (activity was measured to be greater than 5.0 μM)
9 | O=C(COc1ccccc1C1CCN([C@H]2C[C@H]3CC[C@H]2C3)CC1)c1ccc(N2CCCC2)cc1 [Compound 127] | 25 to 100 | 25 to 100 | < 25 | 25 to 100 | ++ (activity was measured to be from 1.0 μM to 5.0 μM) | +++ (activity was measured to be less than 1.0 μM) | + (activity was measured to be greater than 5.0 μM) | ++ (activity was measured to be from 1.0 μM to 5.0 μM)
10 | COc1ccc(-c2ccc(C(=O)N3CCCCC3)cc2)cc1C1CCN([C@H]2C[C@H]3CC[C@H]2C3)CC1 [Compound 128] | < 25 | < 25 | < 25 | < 25 | + (activity was measured to be greater than 5.0 μM) | ++ (activity was measured to be from 1.0 μM to 5.0 μM) | + (activity was measured to be greater than 5.0 μM) | + (activity was measured to be greater than 5.0 μM)

More lines, main results first:

Row | Emax (M2 muscarinic receptor) [%] | Emax (M4 muscarinic receptor) [%] | Emax (M3 muscarinic receptor) [%] | Emax (M1 muscarinic receptor) [%] | Structure (SMILES) | M2 Activity (M2 muscarinic receptor) | M4 Activity (M4 muscarinic receptor) | M3 Activity (M3 muscarinic receptor) | M1 Activity (M1 muscarinic receptor)
11 | < 25 | 25 to 100 | < 25 | 25 to 100 | COc1ccc(Cl)cc1C1CCN(C2CCC(F)(F)CC2)CC1 [Compound 115] | + (activity was measured to be greater than 5.0 μM) | ++ (activity was measured to be from 1.0 μM to 5.0 μM) | + (activity was measured to be greater than 5.0 μM) | + (activity was measured to be greater than 5.0 μM)
12 | < 25 | 25 to 100 | < 25 | 25 to 100 | COc1ccc(Cl)cc1C1CCN(CC2CCOCC2)CC1 [Compound 121] | + (activity was measured to be greater than 5.0 μM) | +++ (activity was measured to be less than 1.0 μM) | + (activity was measured to be greater than 5.0 μM) | ++ (activity was measured to be from 1.0 μM to 5.0 μM)
13 | 25 to 100 | 25 to 100 | < 25 | 25 to 100 | CCOC(=O)N1CCC(CN2CCC(F)(c3cc(Cl)ccc3OC)CC2)CC1 [Compound 122] | ++ (activity was measured to be from 1.0 μM to 5.0 μM) | +++ (activity was measured to be less than 1.0 μM) | + (activity was measured to be greater than 5.0 μM) | ++ (activity was measured to be from 1.0 μM to 5.0 μM)
14 | < 25 | < 25 | < 25 | < 25 | COc1ccc(-c2ccncc2)cc1C1CCN([C@@H]2C[C@@H]3CC[C@H]2C3)CC1 [Compound 124, 4-(3-(1-((1S,2R,4R)-bicyclo[2.2.1]heptan-2-yl)piperidin-4-yl)-4-methoxyphenyl) pyridine] | + (activity was measured to be greater than 5.0 μM) | + (activity was measured to be greater than 5.0 μM) | + (activity was measured to be greater than 5.0 μM) | + (activity was measured to be greater than 5.0 μM)
